Assay results from the NIST ThermoML archive (doi:10.1007/s10765-006-0051-4).

Test: xn = mol fraction of the nth substance listed
Settings: Gas, Oscillating disk viscometry

FC(F)C(F)(F)F [pentafluoroethane] + CCC
Settings	viscosity [mPa·s]
373.15 K, 3429.9 kPa, x1 = 0.5011	0.01593
373.15 K, 3613.1 kPa, x1 = 0.5011	0.01624
373.15 K, 3684.6 kPa, x1 = 0.7503	0.01798
373.15 K, 3737.3 kPa, x1 = 0.5011	0.01642
373.15 K, 3960.9 kPa, x1 = 0.5011	0.01685
373.15 K, 3969.4 kPa, x1 = 0.7503	0.01855
373.15 K, 4171.6 kPa, x1 = 0.5011	0.0173
373.15 K, 4227.4 kPa, x1 = 0.7503	0.01913
373.15 K, 4377 kPa, x1 = 0.5011	0.01777
373.15 K, 4411 kPa, x1 = 0.7503	0.01964
373.15 K, 4576.1 kPa, x1 = 0.5011	0.01833
373.15 K, 4607.7 kPa, x1 = 0.7503	0.02019
373.15 K, 4760.3 kPa, x1 = 0.5011	0.01889
373.15 K, 4816.2 kPa, x1 = 0.7503	0.02092
373.15 K, 4878.3 kPa, x1 = 0.5011	0.01931
373.15 K, 5001.8 kPa, x1 = 0.7503	0.0217
373.15 K, 5157.2 kPa, x1 = 0.7503	0.02229
373.15 K, 5305.9 kPa, x1 = 0.7503	0.02305
398.15 K, 101.4 kPa, x1 = 0.5011	0.01447
398.15 K, 101.8 kPa, x1 = 0.7503	0.01589
398.15 K, 200.6 kPa, x1 = 0.5011	0.01454
398.15 K, 262.5 kPa, x1 = 0.7503	0.01594
398.15 K, 348.4 kPa, x1 = 0.5011	0.01457
398.15 K, 488.6 kPa, x1 = 0.7503	0.01602
398.15 K, 541 kPa, x1 = 0.5011	0.01463
398.15 K, 733.4 kPa, x1 = 0.7503	0.01606
398.15 K, 783.2 kPa, x1 = 0.5011	0.01467
398.15 K, 977 kPa, x1 = 0.7503	0.01615
398.15 K, 1028.7 kPa, x1 = 0.5011	0.01479
398.15 K, 1218.3 kPa, x1 = 0.7503	0.01622
398.15 K, 1272.7 kPa, x1 = 0.5011	0.01488
398.15 K, 1476.6 kPa, x1 = 0.7503	0.01635
398.15 K, 1520 kPa, x1 = 0.5011	0.01497
398.15 K, 1712.5 kPa, x1 = 0.7503	0.01647
398.15 K, 1748.1 kPa, x1 = 0.5011	0.01511
398.15 K, 1944.3 kPa, x1 = 0.7503	0.01666
398.15 K, 2037 kPa, x1 = 0.5011	0.01521
398.15 K, 2176.8 kPa, x1 = 0.7503	0.01672
398.15 K, 2274.1 kPa, x1 = 0.5011	0.0154
398.15 K, 2388.9 kPa, x1 = 0.7503	0.01694
398.15 K, 2490.3 kPa, x1 = 0.5011	0.01548
398.15 K, 2622.4 kPa, x1 = 0.7503	0.01715
398.15 K, 2777.4 kPa, x1 = 0.5011	0.01568
398.15 K, 2888.9 kPa, x1 = 0.7503	0.01734
398.15 K, 3059.7 kPa, x1 = 0.5011	0.01592
398.15 K, 3178.3 kPa, x1 = 0.7503	0.01765
398.15 K, 3336.8 kPa, x1 = 0.5011	0.01626
398.15 K, 3405.7 kPa, x1 = 0.7503	0.01794
398.15 K, 3609.9 kPa, x1 = 0.5011	0.0165
398.15 K, 3624.9 kPa, x1 = 0.7503	0.01817
398.15 K, 3822.7 kPa, x1 = 0.7503	0.01844
398.15 K, 3842.8 kPa, x1 = 0.5011	0.01681
398.15 K, 3992.9 kPa, x1 = 0.7503	0.01868
398.15 K, 4062.4 kPa, x1 = 0.5011	0.01705
398.15 K, 4225.4 kPa, x1 = 0.7503	0.01902
398.15 K, 4329.6 kPa, x1 = 0.5011	0.01744
398.15 K, 4523.9 kPa, x1 = 0.7503	0.01947
398.15 K, 4652.3 kPa, x1 = 0.5011	0.01792
398.15 K, 4690.7 kPa, x1 = 0.7503	0.01983
398.15 K, 4804.6 kPa, x1 = 0.7503	0.02002
398.15 K, 5014.1 kPa, x1 = 0.5011	0.01853
398.15 K, 5040.9 kPa, x1 = 0.7503	0.02051
398.15 K, 5179.6 kPa, x1 = 0.5011	0.01885
398.15 K, 5224.5 kPa, x1 = 0.7503	0.02087
398.15 K, 5374.2 kPa, x1 = 0.5011	0.01934
398.15 K, 5462.4 kPa, x1 = 0.7503	0.0215
398.15 K, 5801.5 kPa, x1 = 0.7503	0.0224
423.15 K, 101.3 kPa, x1 = 0.5011	0.01525
423.15 K, 102.4 kPa, x1 = 0.7503	0.01671
423.15 K, 194.6 kPa, x1 = 0.7503	0.01672
423.15 K, 200.5 kPa, x1 = 0.5011	0.01531
423.15 K, 336.4 kPa, x1 = 0.7503	0.01676
423.15 K, 390.6 kPa, x1 = 0.5011	0.01537
423.15 K, 570.1 kPa, x1 = 0.7503	0.01682
423.15 K, 586.2 kPa, x1 = 0.5011	0.01537
423.15 K, 781.9 kPa, x1 = 0.5011	0.01543
423.15 K, 812.9 kPa, x1 = 0.7503	0.01692
423.15 K, 960.2 kPa, x1 = 0.5011	0.01542
423.15 K, 1055.8 kPa, x1 = 0.7503	0.01696
423.15 K, 1175.7 kPa, x1 = 0.5011	0.01552
423.15 K, 1254.9 kPa, x1 = 0.7503	0.01706
423.15 K, 1421.7 kPa, x1 = 0.5011	0.01565
423.15 K, 1448.9 kPa, x1 = 0.7503	0.01715
423.15 K, 1640 kPa, x1 = 0.7503	0.01724
423.15 K, 1658.8 kPa, x1 = 0.5011	0.01573
423.15 K, 1898.5 kPa, x1 = 0.5011	0.01584
423.15 K, 1906.4 kPa, x1 = 0.7503	0.0174
423.15 K, 2128.2 kPa, x1 = 0.7503	0.01752
423.15 K, 2142.2 kPa, x1 = 0.5011	0.01598
423.15 K, 2375.9 kPa, x1 = 0.7503	0.01766
423.15 K, 2381.7 kPa, x1 = 0.5011	0.01613
423.15 K, 2575.8 kPa, x1 = 0.5011	0.01623
423.15 K, 2591.5 kPa, x1 = 0.7503	0.01781
423.15 K, 2903.1 kPa, x1 = 0.5011	0.01643
423.15 K, 2919.3 kPa, x1 = 0.7503	0.01808
423.15 K, 3148.8 kPa, x1 = 0.5011	0.01663
423.15 K, 3160.1 kPa, x1 = 0.7503	0.01824
423.15 K, 3289.3 kPa, x1 = 0.7503	0.01836
423.15 K, 3412.8 kPa, x1 = 0.5011	0.01685
423.15 K, 3552.1 kPa, x1 = 0.7503	0.01859
423.15 K, 3651.4 kPa, x1 = 0.5011	0.01705
423.15 K, 3813.6 kPa, x1 = 0.7503	0.01886
423.15 K, 3903.9 kPa, x1 = 0.5011	0.01729
423.15 K, 4061.5 kPa, x1 = 0.7503	0.01916
423.15 K, 4138.6 kPa, x1 = 0.5011	0.01756
423.15 K, 4298.5 kPa, x1 = 0.7503	0.01944
423.15 K, 4492.6 kPa, x1 = 0.7503	0.01962
423.15 K, 4533.7 kPa, x1 = 0.5011	0.01792
423.15 K, 4689.8 kPa, x1 = 0.7503	0.01988
423.15 K, 4822.7 kPa, x1 = 0.5011	0.01823
423.15 K, 4902.5 kPa, x1 = 0.7503	0.02023
423.15 K, 5070 kPa, x1 = 0.7503	0.02042
423.15 K, 5073.7 kPa, x1 = 0.5011	0.01858
423.15 K, 5285.8 kPa, x1 = 0.7503	0.02077
423.15 K, 5357.3 kPa, x1 = 0.5011	0.01897
423.15 K, 5493.3 kPa, x1 = 0.7503	0.02108
423.15 K, 5672.2 kPa, x1 = 0.7503	0.02139
423.15 K, 5701.1 kPa, x1 = 0.5011	0.01947
423.15 K, 5887.3 kPa, x1 = 0.7503	0.02175
423.15 K, 6049.1 kPa, x1 = 0.5011	0.02
423.15 K, 6270.6 kPa, x1 = 0.5011	0.02038
423.15 K, 6494.5 kPa, x1 = 0.5011	0.0208
423.15 K, 6710.2 kPa, x1 = 0.5011	0.02129
